Source: paper PMC11051198, “Synthesis and Late-Stage Modification of (−)-Doliculide Derivatives Using Matteson’s Homologation Approach” (Marine Drugs, 2024)

Key:
Assay type in all cases: cell-based
HCT-116 = test: MTT cytotoxicity assay, HCT-116; settings: HCT-116 human colon carcinoma, 5 d incubation, 37 °C, 5% CO2, DMEM + 10% FBS, mean ± SD of two independent measurements
Description: (§1) The cell cultures were cultivated at 37 °C under an atmosphere containing 5% CO2. Before usage, Dulbecco’s Modified Eagle Medium (DMEM) from Gibco (Thermo Fisher Scientific) was supplemented with 10% fetal bovine serum (FBS) from Gibco. Cells were used between passage 5 and 30 and were split separately for at least two passages to obtain biological repeats. Cells were washed with PBS and 0.5 mL trypsin was added before treatment. Cells were then incubated for 5 min before adding 10 mL medium containing 10% FBS. Per well, 120 µL cell suspension 5 × 10^4 cells/mL (CHO-K1, HCT-116. U-2 OS, KB3.1) or 1 × 10^5 cells/mL (HepG2) cells were seeded in transparent 96-well cell bind plate and incubated for 2 h at 37 °C and an atmosphere of 5% CO2. Each compound was tested in a serial dilution so that the starting concentration is 111 µg/mL, which is diluted by 1:3 as well as the internal solvent control prepared in DMEM with 10% FBS. After 5 d incubation at 37 °C and an atmosphere of 5% CO2, 20 μL of 5 mg/mL MTT (thiazolyl blue tetrazolium bromide) in PBS was added per well and cells were further incubated until coloration of the cells. The medium was then discarded and 100 μL 2-propanol/10 N HCl (250:1) added to the cells. The plates were analyzed by measuring the absorbance at 570 nm and 630 nm as reference using a microplate reader Infinite® 200 Pro from Tecan (Männedorf, Switzerland). Absorption is then converted to cell viability expressed as percentage relative to the respective solvent control. The calculated percentage of growth inhibition were determined by sigmoidal curve fitting using GraphPad (Boston, MA, USA) Prism software (version 10.0.2). Two independent measurements were generated for mean and standard deviation.

KB3.1 = test: MTT cytotoxicity assay, KB3.1; settings: KB3.1 human epidermoid carcinoma cell line, 5 d incubation, 37 °C, 5% CO2, DMEM + 10% FBS, mean ± SD of two independent measurements
Description: as §1

U-2 OS = test: MTT cytotoxicity assay, U-2 OS; settings: U-2 OS human bone osteosarcoma, 5 d incubation, 37 °C, 5% CO2, DMEM + 10% FBS, mean ± SD of two independent measurements
Description: as §1

CHO-K1 = test: MTT cytotoxicity assay, CHO-K1; settings: CHO-K1 mutagenized Chinese hamster ovary, 5 d incubation, 37 °C, 5% CO2, DMEM + 10% FBS, mean ± SD of two independent measurements
Description: as §1

HepG2 = test: MTT cytotoxicity assay, HepG2; settings: HepG2 human hepatocellular carcinoma, 5 d incubation, 37 °C, 5% CO2, DMEM + 10% FBS, mean ± SD of two independent measurements
Description: as §1

[1] = ≤ values: individual results varied widely, given as a range

Compound	IC50 (HCT-116; [1]) [nM]	IC50 (KB3.1; [1]) [nM]	IC50 (U-2 OS; [1]) [nM]	IC50 (CHO-K1) [nM]	IC50 (HepG2) [nM]	IC50 (KB3.1) [nM]	IC50 (U-2 OS) [nM]	IC50 (HCT-116) [nM]
C[C@H]1C[C@@H](C)[C@@H](O)C[C@@H](CC#C[Si](C)(C)C)OC(=O)[C@@H](Cc2ccc(O)c(I)c2)N(C)C(=O)CNC(=O)[C@@H](C)C1 [Compound 8a, (3R,9S,11S,13R,14S,16R)-14-Hydroxy-3-(4-hydroxy-3-iodobenzyl)-4,9,11,13-tetramethyl-16-[3-(trimethylsilyl)prop-2-yn-1-yl]-1-oxa-4,7-diazacyclohexadecane-2,5,8-trione]	8 ± 7.3	≤ 115	336 ± 146	380 ± 44	20000 ± 4500			
CCOC(=O)CCSCCC[C@@H]1C[C@H](O)[C@H](C)C[C@H](C)C[C@H](C)C(=O)NCC(=O)N(C)[C@H](Cc2ccc(O)c(I)c2)C(=O)O1 [Compound 11d, Ethyl 3-({3-[(3R,9S,11S,13R,14S,16R)-14-hydroxy-3-(4-hydroxy-3-iodobenzyl)-4,9,11,13-tetramethyl-2,5,8-trioxo-1-oxa-4,7-diazacyclohexadecan-16-yl]propyl}-thio)propanoate]	60 ± 13			9840 ± 3870	> 49400	3930 ± 1140	4900 ± 3870	
C[C@H]1C[C@@H](C)[C@@H](O)C[C@@H](Cc2cn(CCOCCOCCNC(=O)OC(C)(C)C)nn2)OC(=O)[C@@H](Cc2ccc(O)c(I)c2)N(C)C(=O)CNC(=O)[C@@H](C)C1 [Compound 9f, tert-Butyl (2-{2-[2-(4-{[(3R,9S,11S,13R,14S,16R)-14-hydroxy-3-(4-hydroxy-3-iodobenzyl)-4,9,11,13-tetramethyl-2,5,8-trioxo-1-oxa-4,7-diazacyclohexadecan-16-yl]methyl}-1H-1,2,3-triazol-1-yl)ethoxy]ethoxy}ethyl)carbamate]	86 ± 79	722 ± 180		6380 ± 2810	> 41700		1560 ± 670	
C#CC[C@@H]1C[C@H](O)[C@H](C)C[C@H](C)C[C@H](C)C(=O)NCC(=O)N(C)[C@H](Cc2ccc(O)c(I)c2)C(=O)O1 [Compound 8c, (3R,9S,11S,13R,14S,16R)-14-Hydroxy-3-(4-hydroxy-3-iodobenzyl)-4,9,11,13-tetramethyl-16-(prop-2-yn-1-yl)-1-oxa-4,7-diazacyclohexadecane-2,5,8-trione]	65 ± 16	114 ± 49	49 ± 33	474 ± 147	147 ± 65			
CCCCCn1cc(C[C@@H]2C[C@H](O)[C@H](C)C[C@H](C)C[C@H](C)C(=O)NCC(=O)N(C)[C@H](Cc3ccc(O)c(I)c3)C(=O)O2)nn1 [Compound 9b, (3R,9S,11S,13R,14S,16R)-14-hydroxy-3-(4-hydroxy-3-iodobenzyl)-4,9,11,13-tetramethyl-16-((1-pentyl-1H-1,2,3-triazol-4-yl)methyl)-1-oxa-4,7-diazacyclohexadecane-2,5,8-trione]	≤ 110	41 ± 14	≤ 110	69 ± 12				
C[C@H]1C[C@@H](C)[C@@H](O)C[C@@H](Cc2cn(CCOCCOCC(=O)O)nn2)OC(=O)[C@@H](Cc2ccc(O)c(I)c2)N(C)C(=O)CNC(=O)[C@@H](C)C1 [Compound 9d, 2-{2-[2-(4-{[(3R,9S,11S,13R,14S,16R)-14-Hydroxy-3-(4-hydroxy-3-iodobenzyl)-4,9,11,13-tetramethyl-2,5,8-trioxo-1-oxa-4,7-diazacyclohexadecan-16-yl]methyl}-1H-1,2,3-triazol-1-yl)ethoxy]ethoxy}acetic Acid]				> 46200	> 46200	> 46200	> 46200	> 46200
C[C@H]1C[C@@H](C)[C@@H](O)C[C@@H](Cc2cn(Cc3ccccc3)nn2)OC(=O)[C@@H](Cc2ccc(O)c(I)c2)N(C)C(=O)CNC(=O)[C@@H](C)C1 [Compound 9a, (3R,9S,11S,13R,14S,16R)-16-[(1-Benzyl-1H-1,2,3-triazol-4-yl)methyl]-14-hydroxy-3-(4-hydroxy-3-iodobenzyl)-4,9,11,13-tetramethyl-1-oxa-4,7-diazacyclohexadecane-2,5,8-trione]	309 ± 81	47 ± 13	≤ 80	24 ± 9	> 49600			
C[C@H]1C[C@@H](C)[C@@H](O)C[C@@H](Cc2cn(CCOCCOCCOCCNC(=O)OC(C)(C)C)nn2)OC(=O)[C@@H](Cc2ccc(O)c(I)c2)N(C)C(=O)CNC(=O)[C@@H](C)C1 [Compound 9g, tert-Butyl [2-(2-{2-[2-(4-{[(3R,9S,11S,13R,14S,16R)-14-hydroxy-3-(4-hydroxy-3-iodobenzyl)-4,9,11,13-tetramethyl-2,5,8-trioxo-1-oxa-4,7-diazacyclohexadecan-16-yl]methyl}-1H-1,2,3-triazol-1-yl)ethoxy]ethoxy}ethoxy)ethyl]carbamate]	432 ± 140			12900 ± 3000	> 39700	3290 ± 1390	2940 ± 1750	
COc1ccc(C#CC[C@@H]2C[C@H](O)[C@H](C)C[C@H](C)C[C@H](C)C(=O)NCC(=O)N(C)[C@H](Cc3ccc(O)c(I)c3)C(=O)O2)cc1 [Compound 10b, (3R,9S,11S,13R,14S,16R)-14-Hydroxy-3-(4-hydroxy-3-iodobenzyl)-16-[3-(4-methoxyphenyl)prop-2-yn-1-yl]-4,9,11,13-tetramethyl-1-oxa-4,7-diazacyclohexadecane-2,5,8-trione]	153 ± 56			1460 ± 280	> 51500	459000 ± 111000	1880 ± 110	
C[C@H]1C[C@@H](C)[C@@H](O)C[C@@H](CCCSCc2ccccc2)OC(=O)[C@@H](Cc2ccc(O)c(I)c2)N(C)C(=O)CNC(=O)[C@@H](C)C1 [Compound 11c, (3R,9S,11S,13R,14S,16R)-16-[3-(Benzylthio)propyl]-14-hydroxy-3-(4-hydroxy-3-iodobenzyl)-4,9,11,13-tetramethyl-1-oxa-4,7-diazacyclohexadecane-2,5,8-trione]	10.8 ± 1.2	37 ± 1	582 ± 68	391 ± 122	> 50000			
CCCCSCCC[C@@H]1C[C@H](O)[C@H](C)C[C@H](C)C[C@H](C)C(=O)NCC(=O)N(C)[C@H](Cc2ccc(O)c(I)c2)C(=O)O1 [Compound 11b, (3R,9S,11S,13R,14S,16R)-16-[3-(Butylthio)propyl]-14-hydroxy-3-(4-hydroxy-3-iodobenzyl)-4,9,11,13-tetramethyl-1-oxa-4,7-diazacyclohexadecane-2,5,8-trione]		28 ± 3	238 ± 10	142 ± 85	> 52500			> 52500
C=CC[C@@H]1C[C@H](O)[C@H](C)C[C@H](C)C[C@H](C)C(=O)NCC(=O)N(C)[C@H](Cc2ccc(O)c(I)c2)C(=O)O1 [Compound 8b, (3R,9S,11S,13R,14S,16R)-16-Allyl-14-hydroxy-3-(4-hydroxy-3-iodobenzyl)-4,9,11,13-tetramethyl-1-oxa-4,7-diazacyclohexadecane-2,5,8-trione]	16 ± 8	103 ± 65	521 ± 488	264 ± 13	> 60200			
Benzyl 2-(4-{[(3R,9S,11S,13R,14S,16R)-14-hydroxy-3-(4-hydroxy-3-iodobenzyl)-4,9,11,13-tetramethyl-2,5,8-trioxo-1-oxa-4,7-diazacyclohexadecan-16-yl]methyl}-1H-1,2,3-triazol-1-yl)acetate [Compound 9c]				23800 ± 500	> 46000	21900 ± 12600	14400 ± 1300	3810 ± 1000
C[C@H]1C[C@@H](C)[C@@H](O)C[C@@H](CC#Cc2ccccc2)OC(=O)[C@@H](Cc2ccc(O)c(I)c2)N(C)C(=O)CNC(=O)[C@@H](C)C1 [Compound 10a, (3R,9S,11S,13R,14S,16R)-14-Hydroxy-3-(4-hydroxy-3-iodobenzyl)-4,9,11,13-tetramethyl-16-(3-phenylprop-2-yn-1-yl)-1-oxa-4,7-diazacyclohexadecane-2,5,8-trione]	14.5 ± 0.6	49 ± 29	683 ± 87	247 ± 145	15500 ± 300			
